Assay results: patent US6436630B1, “Method for testing the toxicity of chemical substances using gastropods” (priority 1998, dated 2002)
Structures can show the parent of a compound that is named as a salt.

Key:
[1] = test system: foot mucosa of slugs of the species Arion; test: Slug mucosal toxicity test of local anaesthetics, Example 4; assay type: in vivo
Method: The following local anaesthetics were used as test substance: procaine HCl, lidocaine HCl, prilocaine HCl, tetracaine HCl and bupivacaine HCl. All test substances were prepared in PBS (pH 7.4) at 1% w/v concentrations. The slugs were daily incubate during 15 min with the test solution during five days. After the incubation period the slugs were placed on 1 ml PBS in a petri dish. The PBS was sampled every hour and refreshed with 1 ml PBS for 3 hours after the treatment.
The total protein released into the PBS was determined.

[2] = test system: foot mucosa of slugs (species Arion); test: Slug mucosal toxicity test, Example 1 (15 min daily treatment, five days); assay type: in vivo; conditions: for % WL, reduction in weight (weight loss) caused by the 15 minute treatment as % of initial body weight of the day / % MP, mucus production as % of the body weight at the start of the day before the treatment: 1% w/v in PBS; for % MP, mucus production as % of the body weight at the start of the day before the treatment / ALP released into PBS / LDH released into PBS / Protein released into PBS: 15 min; for ALP released into PBS / LDH released into PBS / Protein released into PBS: total mean of 7 samples/day per slug
Text: Initially, the slugs are kept on a culture under controlled conditions of temperature and humidity until they have reached a stable body weight. The purpose of achieving a stable body weight is to improve the reproducibility of the results, particularly as the release of substances from the slugs may conveniently be measured in terms of the body weight thereof. The slugs are then isolated from the culture and placed in a vented plastic box lined with moist paper towel and placed at 95% relative humidity at 20° C. seven days before the start of an experiment. The slugs were not bred in any particular way, i.e. they were wild slugs. It is anticipated that even more accurate and reproducible results can be obtained by selective breeding of the slugs, although as shown by the test results this is not a necessary requirement of the present invention to obtain accurate and useful data.
The test procedure is simple and rapid. The chemical substance to be tested is applied directly to the mucosal membrane of a slug, e.g. to the foot, by placing the slug individually in a petri dish containing the test substance. Slugs treated with phosphate buffered saline are used as a negative control. As a positive control slugs treated with a known toxic substance, benzalkonium chloride, were used.
Because the mucosal epithelium of interest is located at the outside of the slug the effect of substances can be easily observed. […] This can also be simply measured by weighing the petri dish before and after the treatment of the slugs with the chemical substance (with the slugs removed in each case). Additionally an indirect response to epithelial damage caused by a chemical substance may be determined by the reduction of the body weight of the slugs due to the leakage of haemolymphatic fluids through the damaged foot surface.
After the treatment the slugs are transferred individually to a fresh petri dish containing phosphate buffered saline. After a suitable exposure time, e.g. 1 hour the phosphate buffered saline is collected and analysed for the presence of proteins and/or enzymes, e.g. lactate dehydrogenase and/or alkaline phosphatase, or other marker substances released from the foot or epithelium of the slug, for example membrane associated components such as phospholipids or cholesterol. This procedure can be repeated after periods of several hours in order to determine the reversibility of the cell damage caused by the test chemical substance. The concentration or amount of the chemical substance to be tested can be changed and the influence of the concentration can be easily examined. The exposure time can also be changed if required. The slugs can be treated during several successive days in order to investigate the subchronical effect of substances on the foot mucosa.
Seven days before the start of the experiment the slugs were isolated in a plastic box lined with moist paper towel and placed at 95% relative humidity at 20° C. As test substances didecanyol-L-α-phosphatidylcholine (DDPC) and sodium deoxycholate (SDC) were selected. Benzalkonium chloride (1% w/v), SDC (1% w/v) and DDPC (1%, w/v) were prepared in phosphate buffered saline (PBS, pH 7.4). […] During the test the slugs are preferably kept in a generally calm and normal state and are not subjected to mechanical vibrations or mechanical or electrical disturbances which may affect mucus production.
The enzymes (lactate dehydrogenase (LDH) and alkaline phosphatase (ALP)) and total protein released into the PBS were determined. The slugs were weighed before and after the incubation period to determine the body weight changes. The mucus production was measured by weighing the petri dishes before and after the treatment with a test substance. The results are shown in Table 1 and shown graphically in FIGS. 1 to 5.

[3] = 1% w/v, 15 min daily, five days

CCCCN1CCCCC1C(=O)Nc1c(C)cccc1C (centres unmarked) [Bupivacaine HCl, bupivacaine HCl]
% MP, mucus production as % of the body weight at the start of the day before the treatment ([1]; Arion (slug), in vivo, 1 day): 7.24%
Total protein release into PBS ([1]; Arion (slug), in vivo, 1 day): 755 µg/mL
% MP, mucus production as % of the body weight at the start of the day before the treatment ([1]; Arion (slug), in vivo, 2 day): 5.22%
Total protein release into PBS ([1]; Arion (slug), in vivo, 2 day): 464 µg/mL
% MP, mucus production as % of the body weight at the start of the day before the treatment ([1]; Arion (slug), in vivo, 3 day): 2.74%
Total protein release into PBS ([1]; Arion (slug), in vivo, 3 day): 277 µg/mL
% MP, mucus production as % of the body weight at the start of the day before the treatment ([1]; Arion (slug), in vivo, 4 day): 1.64%
Total protein release into PBS ([1]; Arion (slug), in vivo, 4 day): 159 µg/mL
% MP, mucus production as % of the body weight at the start of the day before the treatment ([1]; Arion (slug), in vivo, 5 day): 1.34%
Total protein release into PBS ([1]; Arion (slug), in vivo, 5 day): 313 µg/mL
mucus production (in words) ([1]; in vivo): increased mucus production
protein release (in words) ([1]; in vivo): increased protein release

CCCCCCCCCC(=O)OC[C@H](COP(=O)([O-])OCC[N+](C)(C)C)OC(=O)CCCCCCCCC [DDPC, didecanyol-L-α-phosphatidylcholine]
membrane damage (in words) [2, 3]: little or no damage
% WL, reduction in weight (weight loss) caused by the 15 minute treatment as % of initial body weight of the day ([2]; day 1): 4.84%
% MP, mucus production as % of the body weight at the start of the day before the treatment ([2]; day 1): 0.2%
ALP released into PBS ([2]; day 1, 1% w/v): 9.43 U/L
LDH released into PBS ([2]; day 1, 1% w/v): 9.51 U/L
Protein released into PBS ([2]; day 1, 1% w/v): 12.43 μg/30 μL
% WL, reduction in weight (weight loss) caused by the 15 minute treatment as % of initial body weight of the day ([2]; day 2): 1.19%
% MP, mucus production as % of the body weight at the start of the day before the treatment ([2]; day 2): 0%
ALP released into PBS ([2]; day 2, 1% w/v): 21.83 U/L
LDH released into PBS ([2]; day 2, 1% w/v): 14.47 U/L
Protein released into PBS ([2]; day 2, 1% w/v): 3.77 μg/30 μL
% WL, reduction in weight (weight loss) caused by the 15 minute treatment as % of initial body weight of the day ([2]; day 3): 1.15%
% MP, mucus production as % of the body weight at the start of the day before the treatment ([2]; day 3): 0%
ALP released into PBS ([2]; day 3, 1% w/v): 13.82 U/L
LDH released into PBS ([2]; day 3, 1% w/v): 23.36 U/L
Protein released into PBS ([2]; day 3, 1% w/v): 6.41 μg/30 μL
% WL, reduction in weight (weight loss) caused by the 15 minute treatment as % of initial body weight of the day ([2]; day 4): 1.39%
% MP, mucus production as % of the body weight at the start of the day before the treatment ([2]; day 4): 0%
ALP released into PBS ([2]; day 4, 1% w/v): 4.55 U/L
LDH released into PBS ([2]; day 4, 1% w/v): 19.07 U/L
Protein released into PBS ([2]; day 4, 1% w/v): 4.98 μg/30 μL
% WL, reduction in weight (weight loss) caused by the 15 minute treatment as % of initial body weight of the day ([2]; day 5): 1.14%
% MP, mucus production as % of the body weight at the start of the day before the treatment ([2]; day 5): 0%
ALP released into PBS ([2]; day 5, 1% w/v): 12.42 U/L
LDH released into PBS ([2]; day 5, 1% w/v): 28.32 U/L
Protein released into PBS ([2]; day 5, 1% w/v): 2.40 μg/30 μL

CCN(CC)CC(=O)Nc1c(C)cccc1C [Lidocaine HCl, lidocaine HCl]
damage (in words) [1, 3]: little or no damage
% MP, mucus production as % of the body weight at the start of the day before the treatment ([1]; day 1, 1% w/v in PBS, 15 min): 0%
% MP, mucus production as % of the body weight at the start of the day before the treatment ([1]; day 2, 1% w/v in PBS, 15 min): 0%
% MP, mucus production as % of the body weight at the start of the day before the treatment ([1]; day 3, 1% w/v in PBS, 15 min): 0%
% MP, mucus production as % of the body weight at the start of the day before the treatment ([1]; day 4, 1% w/v in PBS, 15 min): 0%
% MP, mucus production as % of the body weight at the start of the day before the treatment ([1]; day 5, 1% w/v in PBS, 15 min): 0%
